Measured values from patent publication US10799521B2, “Use of icaritin in preparing medicament for preventing or treating hematocytopenia” (Lunan Pharmaceutical Group Corporation, priority 2013, dated 2020).
Marks after values point to notes of the source that are not given here.

Key:
[1] = set-up: species or system Kunming mice; conditions: mouse, in vivo
Procedure: Mice ascites tumor s180 cells were conventionally incubated in 1640 culture medium, at 37° C., 5% CO2, and passaged once every two days in average. The cells in the logarithmic growth phase were prepared into a single-cell suspension having a density of 3.0×10^7 cells/ml with normal saline, which was injected into the abdominal cavities of mice under sterile conditions. Seven days after inoculation, significant swelling of the abdominal cavities of mice can be seen. As this time, the mice were executed by cervical vertebra luxation, put into a beaker containing 75% ethanol and soaked for 2-3 minutes. The sterilized mice were placed into an ultraclean bench, and the abdomens were exposed. The ascites was drawn with a sterile syringe and put into a sterile reagent bottle for further use. The above ascites was counted with trypan blue, diluted with normal saline to adjust to 2.0×10^7 cells/ml, and inoculated at the right armpit of the mice with 0.2 ml for each mouse.
The inoculated mice were randomly divided into 6 groups, with 10 animals in each group and half male and half female.
Docetaxel and icaritin were administered by tail intravenous injection with an administration volume of 10 ml/kg for each. Tegafur, Gimeracil and Oteracil Potassium Capsules was intragastrically administered with an administration volume of 40 ml/kg. Each group was administered once a day for totally 10 days. During the test, the animals were observed every day for their food and water uptake, survival conditions and behaviors, and measured for their body weights every day. After the test was ended, the mice were anaesthetized and anatomized. Blood was collected from abdominal aorta for routine blood test, and the total number of white blood cells, the total number of platelets and the total number of neutrophils were determined.

[2] = tested on: tumor-bearing mice (mice ascites tumor s180 cells); assay: Effect on chemotherapy-induced bone marrow suppression in tumor-bearing mice (routine blood test); type: in vivo, Kunming mice; conditions: after 10 days once daily, docetaxel 75 mg/m^2/d iv, Tegafur/Gimeracil/Oteracil capsules 222.2 mg/m^2/d intragastric, icaritin 10 mg/kg/d iv
Procedure: Mice ascites tumor s180 cells were conventionally incubated in 1640 culture medium, at 37° C., 5% CO2, and passaged once every two days in average. The cells in the logarithmic growth phase were prepared into a single-cell suspension having a density of 3.0×10^7 cells/ml with normal saline, which was injected into the abdominal cavities of mice under sterile conditions. Seven days after inoculation, significant swelling of the abdominal cavities of mice can be seen. As this time, the mice were executed by cervical vertebra luxation, put into a beaker containing 75% ethanol and soaked for 2-3 minutes. The sterilized mice were placed into an ultraclean bench, and the abdomens were exposed. The ascites was drawn with a sterile syringe and put into a sterile reagent bottle for further use. The above ascites was counted with trypan blue, diluted with normal saline to adjust to 2.0×10^7 cells/ml, and inoculated at the right armpit of the mice with 0.2 ml for each mouse. The inoculated mice were randomly divided into 6 groups, with 10 animals in each group and half male and half female. Group 1, the model control group: the test animals were intraperitoneally injected with0.9% normal saline (same for the following experiments); Group 2, the docetaxel group: 75 mg/m^2/d of docetaxel; Group 3, the Tegafur, Gimeracil and Oteracil Potassium Capsules group: 222.2 mg/m^2/d of Tegafur, Gimeracil and Oteracil Potassium Capsules; Group 4, the icaritin group: 10 mg/kg/d of the icaritin microemulsion formulation; Group 5, the D+I group (docetaxel+icaritin group): 75 mg/m^2/d of docetaxel+[…] of icaritin; Group 6, the T +I group (Tegafur, Gimeracil and Oteracil Potassium Capsules+icaritin group): 222.2 mg/m^2/d of Tegafur, Gimeracil and Oteracil Potassium Capsules+10 mg/kg/d of icaritin. Docetaxel and icaritin were administered by tail intravenous injection with an administration volume of 10 ml/kg for each. Tegafur, Gimeracil and Oteracil Potassium Capsules was intragastrically administered with an administration volume of 40 ml/kg. Each group was administered once a day for totally 10 days. During the test, the animals were observed every day for their food and water uptake, survival conditions and behaviors, and measured for their body weights every day. After the test was ended, the mice were anaesthetized and anatomized. Blood was collected from abdominal aorta for routine blood test, and the total number of white blood cells, the total number of platelets and the total number of neutrophils were determined.

[3] = tested on: model of thrombocytopenia induced by cyclophosphamide in mice; assay: Thrombocytopenia induced by cyclophosphamide in mice (platelets in peripheral blood); type: in vivo, Balb/C mice; conditions: cyclophosphamide 50 mg/kg ip model mice; 2 mg/kg sc once a day, 3 weeks; x ± s
Procedure: 72 Balb/C mice were selected, weighed, and randomly divided into 6 groups, i.e. the normal group, the model control group, the icariin group (positive control group), and the icaritin administration groups (high-, medium-, and low-dose groups), with 12 mice in each group. […] One week before starting to establish the model, each group was administered with the following therapeutic agents:
The normal group: administered subcutaneously with the same volume of normal saline;
The model control group: administered subcutaneously with the same volume of normal saline;
(§1) The icariin group: administered by subcutaneous injection with 2 mg/kg of icariin;
(§2) The high-dose icaritin group: administered by subcutaneous injection with 10 mg/kg of the icaritin injection of Example 11;
(§3) The medium-dose icaritin group: administered by subcutaneous injection with 5 mg/kg of the icaritin injection of Example 11;
(§4) The low-dose icaritin group: administered by subcutaneous injection with 1 mg/kg of the icaritin injection of Example 11.
Each group was administered once a day and fed normally. After consecutive administration for 3 weeks, the mice were anesthetized, and blood was sampled to measure the number of platelets and determine the effect of icaritin on the number of platelets (PLT) in the peripheral blood.

chronic ITP model rats = assay: Platelet count in chronic ITP model rats (anti-rat platelet serum); type: in vivo, Wistar rats; conditions: 2 mg/kg sc, 1 h after last administration
Procedure: Establishment of chronic ITP model: Wistar rats were selected to establish the model by injecting rabbit anti-rat platelet serum (APS). […] 50 Rats in which the model was successfully established were selected, weighed, and randomly divided into 5 groups, i.e. the model control group, the icariin group (positive control group), and the icaritin administration groups (high-, medium- and low-dose groups), with 10 rats in each group. The groups were administered with the following therapeutic agents, respectively.
The model control group: administered by subcutaneous injection with the same volume of normal saline;
as §1, §2, §3, §4
At 1 h after the last administration, blood was sampled from the venous plexus by inserting a disposable 20 μl blood collection tube into the inner canthus of the […].

[4] = tested on: active immune thrombocytopenia mice; assay: Active immune thrombocytopenia in mice (platelets in peripheral blood); type: in vivo, Balb/C mice; conditions: 2 mg/kg (table), intragastric once a day, x ± s
Procedure: 72 Balb/C mice were selected, weighed, and randomly divided into […] administration groups, i.e. the normal group, the model control group, the icariin group (positive control group), and the icaritin administration groups (high-, medium-, and low-dose groups), with 12 mice in each group. […] On the second day after the model was established, each group was administered with the following therapeutic agents: The normal group: administered intragastrically with the same volume of normal saline; The model control group: administered intragastrically with the same volume of normal saline; The […]: […]; The high-dose icaritin group: […] Example 9; The medium-dose icaritin group: […] Example 9; The low-dose icaritin group: […] Each of the administration groups was administered once a day and fed normally. After establishing the model three times, each administration group was continued to be administered for one week. The mice were anesthetized, and blood was sampled to measure the number of platelets and determine the effect of icaritin on the number of platelets (PLT) in the peripheral blood.

normal mice [5] = assay: Clotting time in normal mice (capillary method); type: in vivo, Kunming mice; set-up: unit not given here; conditions: 2 mg/kg by injection, 3 days, 1 h after last administration
Procedure: 100 Kunming mice were randomly divided into 5 groups, i.e. the blank control group (normal saline group), the icariin group (positive control group), the high-dose icaritin group, the medium-dose icaritin group, and the low-dose icaritin group. Each group was administered as follows.
Blank control group: administered with the same volume of normal saline by subcutaneous injection;
Icariin group: administered with 2 mg/kg of icariin by injection;
High-dose icaritin group: administered with the injection of icaritin of Example 1 by subcutaneous injection at a dosage of 10 mg/kg;
Medium-dose icaritin group: administered with the injection of icaritin of Example 1 by subcutaneous injection at a dosage of 5 mg/kg;
Low-dose icaritin group: administered with the injection of icaritin of Example 1 by subcutaneous injection at a dosage of 1 mg/kg.
Measurement of the clotting time: The normal saline group (blank control group), the icariin group (positive control group), and the icaritin administration groups (high-, medium-, and low-dose groups) were designed as follows: 50 mice were selected, weighed and randomly divided into 5 groups, with 10 mice in each group. The animals were administered consecutively for 3 days. At 1 h after the last administration, blood was sampled from the venous plexus by inserting a disposable 20 μl blood collection tube into the inner canthus of the mouse to collect 20 μl of blood. A small fragment of capillary was broken off every 15 s for checking the occurrence of clotting filaments. The time from the blood sampling to the occurrence of fibrous protein filaments (clotting time) was recorded, and the results were shown in Table 5.

normal mice [6] = assay: Bleeding time in normal mice (tail tip cut); type: in vivo, Kunming mice; set-up: unit not given here; conditions: 2 mg/kg by injection, 3 days, 1 h after last administration
Procedure: 100 Kunming mice were randomly divided into 5 groups, i.e. the blank control group (normal saline group), the icariin group (positive control group), the high-dose icaritin group, the medium-dose icaritin group, and the low-dose icaritin group. Each group was administered as follows. Blank control group: administered with the same volume of normal saline by subcutaneous injection; Icariin group: administered with 2 mg/kg of icariin by injection; High-dose icaritin group: administered with the injection of icaritin of Example 1 by subcutaneous injection at a dosage of 10 mg/kg; Medium-dose icaritin group: administered with the injection of icaritin of Example 1 by subcutaneous injection at a dosage of 5 mg/kg; Low-dose icaritin group: administered with the injection of icaritin of Example 1 by subcutaneous injection at a dosage of 1 mg/kg. Measurement of the bleeding time: The normal saline group (blank control group), the icariin group (positive control group), and the icaritin administration groups (high-, medium-, and low-dose groups) were designed as follows: 50 mice were selected, weighed, and randomly divided into 5 groups, with 10 mice in each group. The animals were administered consecutively for 3 days. At 1 h after the last administration, a filter paper was rolled to form a filter paper cartridge with a diameter similar to that of the mouse body, which was closed at one end. The mouse was allowed to climb into the cartridge. Then about 3 mm of tail tip of the mouse was cut with scissors. A stopwatch was started to record the time when the bleeding started. The tail tip of the mouse was point-contacted with a filter paper gently every 15 s until there was no blood or no blood can be seen.

Molecule	Body weight Before Administration [1] [g]	Neutrophils [2]	Platelets [2]	White blood cells [2]	PLT [3]	Platelet count (chronic ITP model rats)	PLT [4]	Clotting Time (normal mice [5])	Bleeding Time (normal mice [6])
CC(=O)O[C@@]12CO[C@@H]1C[C@H](O)[C@@]1(C)C(=O)[C@H](O)C3=C(C)[C@@H](OC(=O)[C@H](O)[C@@H](NC(=O)OC(C)(C)C)c4ccccc4)C[C@@](O)([C@@H](OC(=O)c4ccccc4)[C@H]21)C3(C)C [Docetaxel, reference compound]	21.2 ± 1.8	0.670 ± 0.12 10^9/L	450.6 ± 30.5 10^9/L	2.773 ± 0.46 10^9/L	–	–	–	–	–
Tegafur, Gimeracil and Oteracil Potassium Capsules	21.3 ± 2.3	–	–	–	–	–	–	–	–
COc1ccc(-c2oc3c(CC=C(C)C)c(O[C@@H]4O[C@H](CO)[C@@H](O)[C@H](O)[C@H]4O)cc(O)c3c(=O)c2O[C@@H]2O[C@@H](C)[C@H](O)[C@@H](O)[C@H]2O)cc1 [Icariin, reference compound]	–	–	–	–	550.6 ± 90.1** 10^9/L	571.8 ± 60.6 ×10^9	850.6 ± 90.1** 10^9/L	4.28 ± 0.61	4.03 ± 0.45
